Reference: paper PMC7576778, “The tomato receptor CuRe1 senses a cell wall protein to identify Cuscuta as a pathogen” (Nature Communications, 2020)
Values joined by “and” are separate entries in the source; they are usually repeats but may differ in a detail not shown here. Equal values may be shown once. Blank lines part the entries; values can stand above or below the substance they belong to.

Assays:
[1] = target: Cuscuta Receptor 1 (CuRe1), myc-tagged (tomato (Solanum lycopersicum))
[2] = MS analysis of Crip21 treated with NH4OH or ethylamine; assay type: physicochemical; conditions: 12.5% NH4OH or 70% ethylamine
Protocol: The Cuscuta factor (CuF) could be inactivated by incubating it either with 12.5% NH4OH or 70% ethylamine for 1 h at 45 °C.
49 Supplementary Fig. 5. Inactivation of Crip21 by treatments with NH4OH or Ethylamine; (a) Crip21
51 biosynthesis in CuRe1-expressing N. benthamiana leaves. Peptide samples were applied at
52 concentrations of 100 nM. Bovine serum albumin (BSA; 0.01 mg/ml) buffered in 25 mM MES (pH
53 5.7) was added as mock control. FW, fresh weight; ethylene measurements show means of three
54 technical replicates; error bars denote SD. (b) incubation with NH4OH or Ethylamine leads to
56 products with different masses.
(1 picture or pasted object on this page, not shown here)

CuRe1 [3] = test: Ethylene bioassay, leaf pieces of transgenic CuRe1-expressing N. benthamiana; assay type: cell-based, S. lycopersicum (tomato), expressed in N. benthamiana; design: ethylene measurement, average: unit not given here; conditions: for activity in CuRe1-dependent ethylene induction (in words) / concentration at which ethylene production is triggered (minimum effective concentration): CuRe1-expressing N. benthamiana leaves; for concentration at which ethylene production is triggered (minimum effective concentration): dose-dependent ethylene bioassay; for Ethylene, MW: RepFig 3a_2, H2O
Protocol: (§1) All obtained extracts or collected fractions after each purification step, as well as the isolated CrGRP or synthesized Crip peptides were tested for bioactivity in the ethylene assay as previously described. For this we cut leaf samples of analyzed plants in 3 × 3 mm squares and float them on a water surface. After incubation over night at RT, three leaf pieces are carefully collected into glass tubes (6 ml) with 500 µl water. Samples were treated as indicated as well as amounts of used extracts or concentrations of peptides. After treatment tubes were sealed with a rubber plug and incubated at RT on a horizontal shaker (85–100 rpm) for 3 h. All samples were analyzed with a Gaschromatograph (Shimadzu, GC-2014, glass column 3 mm × 1.6 m with Al2O3) by manually injecting 1 ml of the gaseous phase.

[4] = system: leaves of S. lycopersicum, IL 12-2, IL 8-1-1 and S. pennellii; test: Hypersensitive response (HR) cell death after peptide infiltration into tomato leaves; assay type: in vivo; conditions: 7 days
Protocol: For monitoring hypersensitive responses (HR) in leaves, 35S::CrGRP:GFP or 35S::GFP constructs were expressed in either transgenic, CuRe1-expressing or wt N. benthamiana plants. Leaves were infiltrated as described above using the defined volume of 200 µl; infiltration area was carefully labeled with a black marker. Pictures were taken 7 days post infiltration. For detecting HR-symptoms in tomato plants, two leaves of three plants (six leaves total; per introgression line or wildtype) were infiltrated with 100 µl of a 100 nM peptide solution; infiltrated leaf area was labeled with a pen immediately after infiltration and photographs were taken 7 days post peptide infiltration.

N. benthamiana wt = test: Ethylene bioassay, leaf pieces of wildtype N. benthamiana; assay type: cell-based
Protocol: as §1

S. lycopersicum = test: Ethylene bioassay, leaf pieces of cultivated tomato; assay type: cell-based; conditions: Suppl.Fig6c, peptides applied at 5 µM each, mean of the samples
Protocol: as §1

CuRe1 [5] = test: Affinity-crosslinking of bio-Crip29 with CuRe1 in planta; assay type: binding, S. lycopersicum (tomato), expressed in N. benthamiana
Protocol: In vivo cross-linking of biotin-Crip29 (Crip29 aa-sequence: […]) to CuRe1 was performed as described; leaves of N. benthamiana expressing 35S::CuRe1:myc, or control plants (N. benthamiana expressing 35S::RLP23:myc) were infiltrated with biotinylated bio-Crip29 (10 nM in ddH2O) with or without unlabeled Crip21 (or unlabeled Crip82-106) (10 μM) as competitor or with flg22 peptide as competition control. Five minutes after peptide treatment 2 mM EGS (ethylene glycol bis(succinimidyl succinate) in 25 mM HEPES buffer (pH 7.5) was infiltrated into the same leaves for cross-linking of peptides to the receptor proteins. Twenty minutes after cross-linking, leaf samples were harvested and frozen in liquid nitrogen; immunoprecipitations were performed against the myc tag present at the c-terminus of CuRe1 using myc-trap agarose beads (ChromoTek, IZB Martinsried, Germany) as described above. All peptides, including biotinylated bio-Crip29, were synthesized by GenScript® and ordered with a purity of >95%. Biotinylated Crip29 was detected on blots by Streptavidine-conjugated Alkaline Phosphatase (Strep-AP, Roche diagnostics; Streptavidin-AP conjugate, Cat. No.: 11089161001, dilution: 1:1000 in 5% Albumin Fraction V, biotin-free).

[6] = RepFig3b_2, 0.01 nM, mean of 3 samples
[7] = RepFig3b_2, 0.1 nM, mean of 3 samples
[8] = RepFig3b_2, 1 nM, mean of 3 samples
[9] = RepFig3b_2, 10 nM, mean of 3 samples
[10] = RepFig3b_2, 100 nM, mean of 3 samples
[11] = Fig3a + Supl4, N. benthamiana CuRe1, peptide 1 nM, mean of 3 technical replicates
[12] = Fig3a + Supl4, N. benthamiana CuRe1, peptide 10 nM, mean of 3 technical replicates
[13] = Fig3a + Supl4, N. benthamiana CuRe1, peptide 100 nM, mean of 3 technical replicates

ethylene production in CuRe1-expressing N. benthamiana, dose series of peptide [1]: > 0.1 nM
Substance: CrGRP82-106 synthetic peptide

Substance: Crip21: 21 aa cysteine-rich peptide, minimal epitope of C. reflexa glycine-rich protein CrGRP, synthesized (NCGNSGCCGGAYSNGQCKRCC)
peptide mass signal after incubation with NH4OH or ethylamine [2]: disappearance of the peptide mass signal | ethylene-inducing bioactivity after treatment with NH4OH (CuRe1 [3]; 12.5% NH4OH, 1 h at 45 °C, read-out ethylene in CuRe1 N. benthamiana, peptide 100 nM): lost all of its activity | ethylene-inducing bioactivity after treatment with ethylamine (CuRe1 [3]; 70% ethylamine, 1 h at 45 °C, read-out ethylene in CuRe1 N. benthamiana, peptide 100 nM): loose activity | activity in CuRe1-dependent ethylene induction (in words) (CuRe1 [3]): full activity | concentration at which ethylene production is triggered (minimum effective concentration) (CuRe1 [3]): > 0.1 nM | ethylene, average (CuRe1 [3]; Fig3a + Supl4, N. benthamiana CuRe1, amount printed as 1 µl, mean of 3 technical replicates): 10 | ethylene, average (CuRe1 [3]; [6]): 0.2767 | ethylene, average (CuRe1 [3]; [7]): 1.39 | ethylene, average (CuRe1 [3]; [8]): 4.143 | ethylene, average (CuRe1 [3]; [9]): 8.283 | ethylene, average (CuRe1 [3]; [10]): 9.4 | ethylene, average (CuRe1 [3]; Suppl.Fig5, N. benthamiana CuRe1, peptide samples 100 nM, untreated or treated with 12.5% NH4OH / 70% ethylamine, mean of 9 samples, values <0.2 not collected): 3.844 | ethylene, average (CuRe1 [3]; Suppl.Fig6b, N. benthamiana CuRe1, 0.01 nM, mean of 3): 0.375 pmol/ml air | ethylene, average (CuRe1 [3]; Suppl.Fig6b, N. benthamiana CuRe1, 0.1 nM, mean of 3): 0.45 pmol/ml air | ethylene, average (CuRe1 [3]; Suppl.Fig6b, N. benthamiana CuRe1, 1 nM, mean of 3): 1.1 pmol/ml air | ethylene, average (CuRe1 [3]; Suppl.Fig6b, N. benthamiana CuRe1, 10 nM, mean of 3): 2.8 pmol/ml air | ethylene, average (CuRe1 [3]; Suppl.Fig6b, N. benthamiana CuRe1, 100 nM, mean of 3): 11.3 pmol/ml air | ethylene, average (CuRe1 [3]; Suppl.Fig6b, N. benthamiana CuRe1, 1000 nM, 3 leaf pieces + 0.5 ml H2O / 6 ml tube, 3 h RT, mean of 3): 11.6 pmol/ml air | ethylene measurement, average (CuRe1 [3]; Suppl.Fig6c, N. benthamiana Cure1, peptides applied at 5 µM each, mean of the samples): 9.564 | HR-type cell death, plants lacking CuRe1 ([4]; leaves of S. pennellii and IL8-1-1 infiltrated with 100 nM peptide): did not | HR-type cell death, plants with functional CuRe1 ([4]; leaves of cultivated tomato (S. lycopersicum) or IL 12-2 infiltrated with 100 nM peptide): showed Crip21-dependent cell death | ethylene, average (N. benthamiana wt; Fig3a + Supl4, amount printed as 1 µl, mean of 3): 0.2667 | ethylene, average (N. benthamiana wt; Suppl.Fig5, peptide samples 100 nM, mean of 3, values <0.2 not collected): 0.2 | ethylene measurement, average (N. benthamiana wt; Suppl.Fig6c, peptides applied at 5 µM each, mean of the samples): 0.1967 | ethylene measurement, average (S. lycopersicum): 20.1539

Substance: GGGGSGHGGHGKGKN [GRP15, 15 aa peptide that served as fingerprint for identification of CrGRP]
activity in CuRe1-dependent ethylene induction (in words) (CuRe1 [3]): completely inactive | ethylene, average (CuRe1 [3]; [11]): 0,2 and 0.2127 | ethylene, average (CuRe1 [3]; [12]): 0,3 and 0.2733 | ethylene, average (CuRe1 [3]; [13]): 0,6 and 0.5933 | ethylene, average (CuRe1 [3]; Fig3a + Supl4, N. benthamiana CuRe1, peptide 1000 nM, mean of 3 technical replicates): 0,4 and 0.3733 | activity at 100 µM (CuRe1 [3]; authors' reply in peer review file, refers to Supplementary Fig. 4): no activity

Substance: GKGKNCGNSGCCGGAYSNGQCKRCCAYKG [bio-Crip29]
biotin labelling of CuRe1 immunoprecipitates (CuRe1 [5]; bio-Crip29 10 nM infiltrated, crosslinked with 2 mM EGS, myc-trap IP, Strep-AP blot): clear labelling | activity in CuRe1-dependent ethylene induction (in words) (CuRe1 [3]): as active as Crip21 | ethylene, average (CuRe1 [3]; [6]): 0.2933 | ethylene, average (CuRe1 [3]; [7]): 0.34 | ethylene, average (CuRe1 [3]; [8]): 1.017 | ethylene, average (CuRe1 [3]; [9]): 5.31 | ethylene, average (CuRe1 [3]; [10]): 7.693

Substance: GKNCGNSGCCGGAYSNGQCKRCCAY [CrGRP82-106, synthetic peptide representing CrGRP residues 82-106]
concentration at which ethylene production is triggered (minimum effective concentration) (CuRe1 [3]): ≥ 0.1 nM | ethylene, average (CuRe1 [3]; [11]): 5.823 | ethylene, average (CuRe1 [3]; [12]): 8.73 | ethylene, average (CuRe1 [3]; [13]): 9.817 | Ethylene, MW (CuRe1 [3]; 1 nM, 3 h RT, mean of 3 samples): 1.5 pmol/ml air | Ethylene, MW (CuRe1 [3]; 10 nM, 3 h RT, mean of 3 samples): 4.6 pmol/ml air | Ethylene, MW (CuRe1 [3]; 100 nM, 3 h RT, mean of 3 samples): 8.9 pmol/ml air | ethylene, average (CuRe1 [3]; [6]): 0.29 | ethylene, average (CuRe1 [3]; [7]): 1.63 | ethylene, average (CuRe1 [3]; [8]): 3.067 | ethylene, average (CuRe1 [3]; [9]): 8.457 | ethylene, average (CuRe1 [3]; [10]): 11.2833 | ethylene, average (N. benthamiana wt; Fig3a + Supl4, peptide 100 nM, mean of 3): 0.2267

Substance: non-modified Crip: unlabeled Crip21 or Crip82-106 (10 µM) used as competitor in crosslinking (NCGNSGCCGGAYSNGQCKRCC)
competition of bio-Crip29 labelling of CuRe1 (CuRe1 [5]; bio-Crip29 10 nM with excess competitor (10 µM)): absent
